EP0600950B1, “AMIDE TETRAZOLE ACAT INHIBITORS” (priority 1991, dated 1993)

Each compound was assayed on male Sprague-Dawley rats (assay: in vivo screen APCC, cholesterol-fed rats, blood cholesterol). Conditions: Table 2, dosed at 30 mg/kg unless otherwise noted, high fat, high cholesterol diet with 0.5% cholic acid overnight, blood cholesterol vs vehicle.
From the text: In one in vivo screen designated APCC, male Sprague-Dawley rats (200 to 225 g) were randomly divided into treatment groups and dosed at 4 PM with either vehicle (CMC/Tween) or suspensions of compounds in vehicle. The normal chow diet was then replaced with a high fat, high cholesterol diet with 0.5% cholic acid. The rats consumed this diet ad libitum during the night and were sacrificed at 8 AM to obtain blood samples for cholesterol analysis using standard procedures. Statistical differences between mean cholesterol values for the same vehicle were determined using analysis of variance followed by Fisher's least significant test.
For “(±)-2-Dodecyl-β-phenyl-N-(2,4-6-trimethoxyphenyl)-2H-tetrazole-5-propanamide and (±)-1-dodecyl-β-phenyl-N-(2,4,6-trimethoxyphenyl)-^1H-tetrazole-5-acetamide [Example 45]”, the “APCC (% ΔTC)” value was -60%.

The compounds below were run against acyl-CoA: cholesterol acyltransferase (ACAT) (assay: in vitro ACAT inhibition, rat liver microsomes (LAI)). Conditions: radiolabeled cholesterol oleate formed from radiolabeled oleic acid.
Type: biochemical
From the text: (§1) The test assesses the ability of a test compound to inhibit the acylation of cholesterol by oleic acid by measuring the amount of radiolabeled cholesterol oleate formed from radiolabeled oleic acid in a tissue preparation containing rabbit intestinal microsomes (designated IAI) or from rat liver microsomes (designated LAI).
CC(C)c1cccc(C(C)C)c1NC(=O)C(c1ccccc1)n1nnc(C(c2ccccc2)c2ccccc2)n1 (racemic) [Example 90, (±)-N-[2,6-bis(1-methylethyl)phenyl]-5-(diphenylmethyl)-α-phenyl-2H-tetrazole-2-acetamide] showed an IC50 of 100 nM. CCCCCCCCCCCCc1nnn(C(C(=O)Nc2c(C(C)C)cccc2C(C)C)c2ccccc2)n1 (racemic) [Example 92, (±)-N-[2,6-bis(1-methylethyl)phenyl]-5-dodecyl-α-phenyl-2H-tetrazole-2-acetamide] showed an IC50 of 15 nM. CCCCCCCCCCCCc1nnn(C(CCCCC)C(=O)Nc2c(C(C)C)cccc2C(C)C)n1 (racemic) [Example 93, (±)-N-[2,6-bis(1-methylethyl)phenyl]-5-dodecyl-α-pentyl-2H-tetrazole-2-acetamide] gave an IC50 of 22 nM. In the case of CCCCCCCCCCCCSc1nnn(C(C(=O)Nc2c(C(C)C)cccc2C(C)C)c2ccccc2)n1 (racemic) [Example 94, (±)-N-[2,6-bis(1-methylethyl)phenyl-5-(dodecylthio)-α-phenyl-2H-tetrazole-2-acetamide], the IC50 is reported as 29 nM. With CCCCCCCCCCc1nnn(C(C(=O)Nc2c(OC)cc(OC)cc2OC)c2ccccc2)n1 (racemic) [Example 95, (±)-5-decyl-α-phenyl-N-(2,4,6-trimethoxyphenyl-2H-tetrazole-2-acetamide] the IC50 was 58 nM. Work on COc1cc(OC)c(NC(=O)C(c2ccccc2)n2nnc(C(c3ccccc3)c3ccccc3)n2)c(OC)c1 (racemic) [Example 96, (±)-5-(diphenylmethyl)-α-phenyl-N-(2,4,6-trimethoxyphenyl)-2H-tetrazole-2-acetamide] yielded an IC50 of 190 nM. For CCCCCCCCCCCCc1nnn(C(C(=O)Nc2c(OC)cc(OC)cc2OC)c2ccccc2)n1 (racemic) [Example 98, (±)-5-dodecyl-α-phenyl-N-(2,4,6-trimethoxyphenyl)-2H-tetrazole-2-acetamide], the IC50 was 21 nM. In the case of CCCCCCCCCCCCc1nnn(C(CCCCC)C(=O)Nc2c(OC)cc(OC)cc2OC)n1 (racemic) [Example 99, (±)-5-dodecyl-α-pentyl-N-(2,4,6-trimethoxyphenyl)-2H-tetrazole-2-acetamide], the IC50 is reported as 32 nM. Work on CCCCCCCCCCCCc1nnn(C(C(=O)Nc2ccc(F)cc2F)c2ccccc2)n1 (racemic) [Example 100, (±)-N-(2,4-difluorophenyl-5-dodecyl-α-phenyl-2H-tetrazole-2-acetamide] yielded an IC50 of 80 nM. CCCCCCCCCCCCSc1nnn(C(C(=O)Nc2c(OC)cc(OC)cc2OC)c2ccccc2)n1 (racemic) [Example 103, (±)-5-(dodecylthio)-α-phenyl-N-(2,4,6-trimethoxyphenyl)-2H-tetrazole-2-acetamide] showed an IC50 of 49 nM. CCCCCCCCCCCC[S+]([O-])c1nnn(C(C(=O)Nc2c(OC)cc(OC)cc2OC)c2ccccc2)n1 (racemic) [Example 104, (±)-5-(dodecylsulfinyl)-α-phenyl-N-(2,4,6)-trimethoxyphenyl)-2H-tetrazole-2-acetamide] gave an IC50 of 55 nM. With CCCCCCCCCCc1nnn(CC(=O)Nc2c(C(C)C)cccc2C(C)C)n1 [Example 88, N-[2,6-bis(1-methylethyl)phenyl]-5-decyl-2H-tetrazole-2-acetamide] the IC50 was 10 nM. CCCCCCCCCCc1nnnn1CC(=O)Nc1c(C(C)C)cccc1C(C)C [Example 89, N-[2,6-bis(1-methylethyl)phenyl]-5-decyl-1H-tetrazole-1-acetamide] was tested, and the IC50 was 390 nM. CCCCCCCCCCCCc1nnn(CC(=O)Nc2c(C(C)C)cccc2C(C)C)n1 [Example 91] was tested, and the IC50 was 6 nM. Compound CCCCCCCCCCCCc1nnn(CC(=O)Nc2c(OC)cc(OC)cc2OC)n1 [Example 97, 5-dodecyl-N-(2,4,6-trimethoxy-phenyl)-2H-tetrazole-2-acetamide] has an IC50 of 56 nM. With CCCCCCCCCCCCc1nnn(CC(=O)Nc2ccc(F)cc2F)n1 [Example 101, N-(2,4-difluorophenyl)-5-dodecyl-2H tetrazole-2-acetamide] the IC50 was over 5000 nM. For CCCCCCCCCCCCc1nnn(C(C)(C)C(=O)Nc2c(OC)cc(OC)cc2OC)n1 [Example 102, 5-dodecyl-α,α-dimethyl-N-(2,4,6-trimethoxyphenyl)-2H-tetrazole-2-acetamide], the IC50 was 42 nM.

Each compound was assayed against acyl-CoA: cholesterol acyltransferase (ACAT) (assay: in vitro ACAT inhibition, rabbit intestinal microsomes (IAI)). Conditions: radiolabeled cholesterol oleate formed from radiolabeled oleic acid.
Type: biochemical
From the text: as §1
CCCCCCCCCCCCCCn1nnc(CC(=O)Nc2c(OC)cc(OC)cc2OC)n1 [Example 49, 2-tetradecyl-N-(2,4,6-tri-methoxyphenyl)-2H-tetrazole-5-acetamide] gave an IC50 of 15 nM. In the case of CCCCCCCCCCCCCCn1nnnc1CC(=O)Nc1c(OC)cc(OC)cc1OC [Example 50, 1-tetradecyl-N-(2,4,6-tri-methoxyphenyl)-1H-tetrazole-5-acetamide], the IC50 is reported as 1000 nM. Work on “(±)-2-Dodecyl-β-phenyl-N-(2,4-6-trimethoxyphenyl)-2H-tetrazole-5-propanamide and (±)-1-dodecyl-β-phenyl-N-(2,4,6-trimethoxyphenyl)-^1H-tetrazole-5-acetamide [Example 45]” yielded an IC50 of 230 nM.
